Residue numbers refer to the chain shown, from its start.
Key:
Assay in all cases: SPR loading efficiency, L363 Fab on immobilised loaded CD1d
Format in all cases: binding
[1] = target: T1, mCD1d (birA-tag mCD1d/β2m) (Mus musculus, UniProt P11609, L102F); conditions: 16 h with 1 µg/ml α-GalCer; WT set at 100%; lower than WT but never below 65%
T1 construct: gene Cd1d1; soluble glycosylated CD1d/β2m heterodimer, birA tag, biotinylated; with Beta-2-microglobulin
T1 sequence (P11609 19-297 L102F): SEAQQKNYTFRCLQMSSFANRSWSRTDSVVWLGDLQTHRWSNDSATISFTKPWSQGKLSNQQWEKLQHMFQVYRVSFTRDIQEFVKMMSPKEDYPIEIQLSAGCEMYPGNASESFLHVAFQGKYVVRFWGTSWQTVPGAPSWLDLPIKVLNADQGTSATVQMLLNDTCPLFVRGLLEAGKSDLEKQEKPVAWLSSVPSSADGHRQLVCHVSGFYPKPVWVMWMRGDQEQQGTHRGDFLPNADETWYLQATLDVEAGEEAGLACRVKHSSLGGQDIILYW
T1 sequence (P01887 21-119 partner): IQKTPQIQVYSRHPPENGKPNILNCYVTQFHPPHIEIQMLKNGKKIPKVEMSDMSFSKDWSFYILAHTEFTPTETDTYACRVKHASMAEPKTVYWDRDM

[2] = target: T2, mCD1d (birA-tag mCD1d/β2m) (Mus musculus, UniProt P11609, M180A); conditions: 16 h with 1 µg/ml α-GalCer; WT set at 100%; printed Met162Ala and M162A, Met62Ala
T2 construct: gene Cd1d1; soluble glycosylated CD1d/β2m heterodimer, birA tag, biotinylated; with Beta-2-microglobulin
T2 sequence (P11609 19-297 M180A): T1 sequence (P11609 19-297 L102F) with F84L, M162A
T2 sequence (P01887 21-119 partner): T1 sequence (P01887 21-119 partner)

[3] = target: T3, mCD1d (birA-tag mCD1d/β2m) (Mus musculus, UniProt P11609, V167L); conditions: 16 h with 1 µg/ml α-GalCer; WT set at 100%
T3 construct: gene Cd1d1; soluble glycosylated CD1d/β2m heterodimer, birA tag, biotinylated; with Beta-2-microglobulin
T3 sequence (P11609 19-297 V167L): T1 sequence (P11609 19-297 L102F) with F84L, V149L
T3 sequence (P01887 21-119 partner): T1 sequence (P01887 21-119 partner)

[4] = target: T4, mCD1d (birA-tag mCD1d/β2m) (Mus musculus, UniProt P11609, L168V); conditions: 16 h with 1 µg/ml α-GalCer; WT set at 100%
T4 construct: gene Cd1d1; soluble glycosylated CD1d/β2m heterodimer, birA tag, biotinylated; with Beta-2-microglobulin
T4 sequence (P11609 19-297 L168V): T1 sequence (P11609 19-297 L102F) with F84L, L150V
T4 sequence (P01887 21-119 partner): T1 sequence (P01887 21-119 partner)

[5] = target: T5, mCD1d (birA-tag mCD1d/β2m) (Mus musculus, UniProt P11609); conditions: 16 h with 1 µg/ml α-GalCer; reference set at 100%
T5 construct: gene Cd1d1; soluble glycosylated CD1d/β2m heterodimer, birA tag, biotinylated; with Beta-2-microglobulin
T5 sequence (P11609 19-297): T1 sequence (P11609 19-297 L102F) with F84L
T5 sequence (P01887 21-119 partner): T1 sequence (P01887 21-119 partner)

With `CCCCCCCCCCCCCCCCCCCCCCCCCC(=O)N[C@@H](CO[C@H]1O[C@H](CO)[C@H](O)[C@H](O)[C@H]1O)[C@H](O)[C@H](O)CCCCCCCCCCCCCC` [α-GalCer] the “antigen loading efficiency, % of WT” value [1] was “Leu84Phe and Met62Ala mutants showed lower levels of antigen loading compared to wild type”, the “antigen loading efficiency, % of WT” value [2] was “Leu84Phe and Met62Ala mutants showed lower levels of antigen loading compared to wild type” and the “antigen loading efficiency, % of WT” value [3] was “we measured the loading efficiency of α-GalCer on each mutant by surface plasmon resonance”. For the same compound, the “antigen loading efficiency, % of WT” value [4] was “we measured the loading efficiency of α-GalCer on each mutant by surface plasmon resonance” and the “antigen loading efficiency, % of WT” value [5] was “Relative antigen loading efficiencies by the mCD1d mutants as determined by surface plasmon resonance”.

— article PMC3206013, “Unique Interplay between Sugar and Lipid in Determining the Antigenic Potency of Bacterial Antigens for NKT Cells” (PLoS Biology, 2011)
